ChEMBL document CHEMBL5532638, “Current development of 1,2,3-triazole derived potential antimalarial scaffolds: Structure- activity relationship (SAR) and bioactive compounds” (Eur J Med Chem, 2023)
Converted amounts (≈) assume the structure as drawn.

Assays:
[1] = system: Plasmodium falciparum; experiment: Antiplasmodial activity against CQ-resistant Plasmodium falciparum FCR-3/Gambia subline F-86 infected in erythrocytes assessed as parasite growth inhibition incubated for 24 hrs by [3H]-hypoxanthine incorporation assay; assay type: functional, organism-based; conditions: FCR-3/Gambia subline F-86, Erythrocyte
[2] = system: Plasmodium falciparum; experiment: Antiplasmodial activity against CQ-resistant Plasmodium falciparum 2/K-1 infected in human O+ red blood cells assessed as parasite growth inhibition incubated for 72 hrs by Malstat assay; assay type: functional, organism-based, Red blood cell; conditions: 2/K-1, Erythrocyte
[3] = system: Plasmodium falciparum; experiment: Antiplasmodial activity against CQ-sensitive Plasmodium falciparum F32 Tanzania assessed as parasite growth inhibition incubated for 48 hrs; assay type: functional, organism-based, RBC; conditions: Erythrocyte
[4] = system: Plasmodium falciparum; experiment: Antiplasmodial activity against CQ-sensitive Plasmodium falciparum 3D7 at trophozoite stage infected in human O+ RBCs assessed as parasite growth inhibition by SYBR Green I staining based analysis; assay type: functional, organism-based, RBC; conditions: 3D7, Erythrocyte
[5] = system: Plasmodium falciparum; experiment: Antiplasmodial activity against CQ-resistant Plasmodium falciparum RKL-9 at trophozoite stage infected in human O+ RBCs assessed as parasite growth inhibition by SYBR Green I staining based analysis; assay type: functional, organism-based, RBC; conditions: RKL-9, Erythrocyte
[6] = system: Plasmodium falciparum; experiment: Antiplasmodial activity against CQ-resistant Plasmodium falciparum K1 assessed as parasite growth inhibition; assay type: functional, organism-based
[7] = Cytotoxicity against African green monkey Vero cells; assay type: toxicity, cell-based; conditions: chlorocebus sabaeus
[8] = system: Plasmodium falciparum; experiment: Antiplasmodial activity against Plasmodium falciparum 3D7 assessed as parasite growth inhibition incubated for 24 hrs by [3H]-hypoxanthine incorporation assay; assay type: functional, organism-based
[9] = Cytotoxicity against human Huh-7 cells incubated for 48 hrs by MTT assay; assay type: toxicity, cell-based
[10] = biological target: T1, Falcipain 2 (Plasmodium falciparum, UniProt Q9N6S8); experiment: Inhibition of recombinant Plasmodium falciparum FP2
T1 sequence (Q9N6S8 whole entry): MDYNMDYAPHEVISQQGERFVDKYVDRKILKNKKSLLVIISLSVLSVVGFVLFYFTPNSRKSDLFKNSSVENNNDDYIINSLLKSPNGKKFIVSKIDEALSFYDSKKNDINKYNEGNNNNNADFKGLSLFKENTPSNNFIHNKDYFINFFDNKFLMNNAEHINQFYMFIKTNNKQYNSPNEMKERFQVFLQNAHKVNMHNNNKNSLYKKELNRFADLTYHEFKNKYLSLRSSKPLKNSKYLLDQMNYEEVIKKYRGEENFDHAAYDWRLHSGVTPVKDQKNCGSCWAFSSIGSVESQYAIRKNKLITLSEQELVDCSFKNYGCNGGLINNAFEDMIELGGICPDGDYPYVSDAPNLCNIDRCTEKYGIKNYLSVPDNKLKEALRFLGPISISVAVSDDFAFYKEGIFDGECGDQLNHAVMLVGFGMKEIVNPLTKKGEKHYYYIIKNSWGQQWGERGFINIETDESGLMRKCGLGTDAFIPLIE

[11] = system: Plasmodium falciparum; experiment: Antiplasmodial activity against Plasmodium falciparum 3D7 assessed as parasite growth inhibition; assay type: functional, organism-based
[12] = Selectivity index, ratio of CC50 for human erythrocytes to IC50 for Plasmodium falciparum Dd2; assay type: toxicity; conditions: read-out: Ratio CC50/IC50
[13] = system: Plasmodium falciparum; experiment: Antiplasmodial activity against CQ-sensitive Plasmodium falciparum 3D7 infected in red blood cells assessed as parasite growth inhibition incubated for 72 hrs by SYBR Green I staining based analysis; assay type: functional, organism-based, Red blood cell; conditions: 3D7, Erythrocyte
[14] = system: Plasmodium falciparum; experiment: Antiplasmodial activity against CQ-resistant Plasmodium falciparum W2 infected in red blood cells assessed as parasite growth inhibition incubated for 72 hrs by SYBR Green I staining based analysis; assay type: functional, organism-based, Red blood cell; conditions: W2, Erythrocyte
[15] = biological target: Plasmepsin II (Plasmodium falciparum, UniProt P46925); experiment: Inhibition of Plasmodium falciparum Plm-II using DABCYL-Glu-Arg-Nle-Phe-Leu-Ser-Phe-Pro-EDANS as substrate preincubated for 30 mins followed by substrate addition measured after 8 to 15 mins by FRET assay
Plasmepsin II, sequence (P46925 whole entry): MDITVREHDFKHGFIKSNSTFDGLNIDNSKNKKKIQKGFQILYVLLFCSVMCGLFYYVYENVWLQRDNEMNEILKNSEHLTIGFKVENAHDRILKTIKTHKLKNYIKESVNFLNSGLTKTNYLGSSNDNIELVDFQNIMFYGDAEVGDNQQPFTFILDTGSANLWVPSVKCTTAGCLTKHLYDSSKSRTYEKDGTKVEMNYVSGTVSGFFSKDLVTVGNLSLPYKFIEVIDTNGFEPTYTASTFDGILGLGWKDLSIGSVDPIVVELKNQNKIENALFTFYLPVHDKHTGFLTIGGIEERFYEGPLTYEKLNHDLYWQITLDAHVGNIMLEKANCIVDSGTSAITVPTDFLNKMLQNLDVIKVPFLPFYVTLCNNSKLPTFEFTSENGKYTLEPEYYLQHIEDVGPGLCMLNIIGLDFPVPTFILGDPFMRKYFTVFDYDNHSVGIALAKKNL

[16] = system: Plasmodium falciparum; experiment: Antiplasmodial activity against CQ-sensitive Plasmodium falciparum 3D7 assessed as parasite growth inhibition; assay type: functional, organism-based

**Q.** Which IC50 [1] does the source give for `C[C@@H]1[C@@H](n2cc(-c3cccc(Cl)c3)nn2)O[C@@H]2O[C@]3(C)CC[C@H]4[C@H](C)CC[C@@H]1[C@@]24OO3` here?
**A.** 0.0025 µM

**Q.** For `C[C@H]1[C@H](n2nncc2-c2cccc(Cl)c2)O[C@@H]2O[C@]3(C)CC[C@H]4[C@H](C)CC[C@@H]1[C@@]24OO3`, which IC50 [1] is on record?
**A.** 0.0042 µM

**Q.** Which IC50 [2] does the source give for `CCc1nnc2ccc(S(=O)(=O)N(Cc3cccc(F)c3)c3ccc(OC)cc3)cn12` here?
**A.** 4.98 µM

**Q.** Which IC50 [3] does the source give for `O=C1C=C(OCc2cn(-c3ccccc3)nn2)C(=O)c2ccccc21` here?
**A.** 1.2 µM

**Q.** For `COc1ccc(-n2cc(COC3=CC(=O)c4ccccc4C3=O)nn2)cc1F`, which IC50 [3] is on record?
**A.** 0.8 µM

**Q.** What does the source list for `COc1ccccc1C(=O)/C=C/c1cn(Cc2cn(-c3ccnc4cc(Cl)ccc34)nn2)c2ccccc12`?
**A.** IC50 [4]: 2.4 µM; IC50 [5]: 3.5 µM

**Q.** What does the source list for `Cc1ccccc1C(=O)/C=C/c1cn(Cc2cn(-c3ccnc4cc(Cl)ccc34)nn2)c2ccccc12`?
**A.** IC50 [4]: 1.8 µM; IC50 [5]: 2.7 µM

**Q.** What does the source list for `COc1cc(/C=C/C(=O)c2ccc(Cl)cc2)ccc1OCc1cn(-c2ccnc3cc(Cl)ccc23)nn1`?
**A.** IC50 [6]: 3.14 µM; CC50 [7]: 46.2 µM

**Q.** Which results are given for `Cc1ccc(OCc2cn(-c3ccc(S(N)(=O)=O)cc3)nn2)cc1`?
**A.** IC50 [8]: 6.2 µg/mL (≈ 18 µM); CC50 at 48 h [9]: 7.5 µg/mL (≈ 21.8 µM)

**Q.** For `O=[N+]([O-])c1ccc(-n2cc(COc3cccc4nc(Cl)ccc34)nn2)cc1`, which IC50 [10] is on record?
**A.** 16.2 µM

**Q.** What about the IC50 [11] of the same molecule?
**A.** 49.9 µM

**Q.** With `O=[N+]([O-])c1ccc(Cn2cc(CO)nn2)cc1` as the molecule, how does the selectivity ratio [12] read?
**A.** 161

**Q.** What does the source list for `OB1OCc2cc(OCc3cn(CCCNc4ccnc5cc(Cl)ccc45)nn3)ccc21`?
**A.** IC50 [13]: 4.13 µM; IC50 [14]: 3.91 µM

**Q.** With `C[C@H]1[C@@H](n2cc(-c3cccc(Cl)c3)nn2)O[C@@H]2O[C@]3(C)CC[C@H]4[C@H](C)CC[C@@H]1[C@@]24OO3` as the molecule, how does the IC50 [1] read?
**A.** 0.0037 µM

**Q.** Which IC50 [15] does the source give for `CCCCCc1ccc(-n2nnc(CCN(CC)CC)c2Cc2ccc(-c3ccc(OC)cc3)cc2)cc1` here?
**A.** 0.6 µM

**Q.** For `O=S(=O)(c1ccc(-n2cc(COc3ccc(I)cc3)nn2)cc1)N1CCN(c2ccccc2)CC1`, which IC50 [8] is on record?
**A.** 12.9 µg/mL (≈ 21.4 µM)

**Q.** With `CCCCCc1ccc(-n2nnc(CCN3CCCC3)c2Cc2ccc(-c3ccc(OC)cc3)cc2)cc1` as the molecule, how does the IC50 [15] read?
**A.** 0.6 µM

**Q.** With `C[C@H](Cn1cc(C(C)(C)O)nn1)C1CCC2[C@@H](O)CCC[C@]12C` (some centres not stated) as the molecule, how does the IC50 [16] read?
**A.** 0.02 µM

**Q.** For `ClCCCCn1cc(-c2ccccc2)nn1`, which IC50 [16] is on record?
**A.** 3.29 µM

**Q.** For `O=c1n(Cc2cccc(Cl)c2)nc2c(S(=O)(=O)N3CCCCC3)cccn12`, which IC50 [2] is on record?
**A.** 2.24 µM

**Q.** With `Cc1cc(C)nc(NS(=O)(=O)c2ccc(-n3cc(COc4ccc(Cl)cc4Cl)nn3)cc2)n1` as the molecule, how does the IC50 [8] read?
**A.** 16.7 µg/mL (≈ 33 µM)

**Q.** For `CCCCCc1ccc(-n2nnc(CCN3CCN(C)CC3)c2Cc2ccc(-c3ccc(OC)cc3)cc2)cc1`, which IC50 [15] is on record?
**A.** 1.8 µM
